In the NIST ThermoML archive (doi:10.1016/j.jct.2016.10.009):

Assay: xn = mol fraction of the nth substance listed
Details: Liquid, Vibrating tube method

CC(C)OC(C)C [diisopropyl ether] + CCC(C)O
mass density [kg/m3]
Details | x2 = 0 | x2 = 0.2036 | x2 = 0.3227 | x2 = 0.4464 | x2 = 0.4973 | x2 = 0.6595 | x2 = 0.8482
293.15 K, 100 kPa | 723.5 | 737.9 | 746.6 | 756.1 | – | 774.1 | 791.8
293.15 K, 1000 kPa | 724.6 | 739 | 747.6 | 757 | 761.1 | 774.9 | 792.6
293.15 K, 5000 kPa | 729.4 | 743.4 | 751.8 | 761.1 | 765 | 778.5 | 795.9
293.15 K, 10000 kPa | 734.9 | 748.6 | 756.8 | 765.7 | 769.6 | 782.9 | 799.8
293.15 K, 15000 kPa | 740 | 753.3 | 761.4 | 770.2 | 774 | 786.9 | 803.5
293.15 K, 20000 kPa | 744.8 | 757.9 | 765.7 | 774.3 | 778.1 | 790.8 | 807.1
293.15 K, 25000 kPa | 749.4 | 762.2 | 769.9 | 778.3 | 782 | 794.5 | 810.4
293.15 K, 30000 kPa | 753.7 | 766.2 | 773.8 | 782.2 | 785.7 | 798 | 813.7
293.15 K, 35000 kPa | 757.7 | 770.1 | 777.6 | 785.7 | 789.3 | 801.3 | 816.8
293.15 K, 40000 kPa | 761.6 | 773.8 | 781.1 | 789.2 | 792.7 | 804.5 | 819.8
293.15 K, 45000 kPa | 765.3 | 777.3 | 784.6 | 792.5 | 796 | 807.7 | 822.7
293.15 K, 50000 kPa | 768.9 | 780.7 | 787.9 | 795.7 | 799.1 | 810.7 | 825.5
293.15 K, 55000 kPa | 772.4 | 784 | 791.1 | 798.8 | 802.2 | 813.6 | 828.3
293.15 K, 60000 kPa | 775.7 | 787.1 | 794.2 | 801.8 | 805.2 | 816.4 | 830.9
293.15 K, 65000 kPa | 778.9 | 790.3 | 797.2 | 804.8 | 808.1 | 819.2 | 833.5
293.15 K, 70000 kPa | 782 | 793.2 | 800.1 | 807.5 | 810.8 | 821.8 | 836
293.15 K, 80000 kPa | 787.9 | 798.9 | 805.6 | 812.9 | 816.2 | 826.9 | 840.8
293.15 K, 90000 kPa | 793.5 | 804.4 | 810.9 | 818.1 | 821.3 | 831.9 | 845.5
293.15 K, 100000 kPa | 798.8 | 809.3 | 815.9 | 822.9 | 826 | 836.4 | 849.8
293.15 K, 110000 kPa | 803.9 | 814.2 | 820.7 | 827.6 | 830.7 | 840.9 | 854.1
293.15 K, 120000 kPa | 808.7 | 818.9 | 825.2 | 832.1 | 835.1 | 845.2 | 858.2
293.15 K, 130000 kPa | 813.2 | 823.4 | 829.6 | 836.4 | 839.3 | 849.3 | 862.1
293.15 K, 140000 kPa | 817.6 | 827.6 | 833.7 | 840.4 | 843.3 | 853.2 | 865.8
298.15 K, 100 kPa | 718.3 | 732.9 | 741.7 | 751.2 | 755.4 | 769.4 | 787.5
298.15 K, 1000 kPa | 719.6 | 734 | 742.8 | 752.2 | 756.4 | 770.3 | 788.3
298.15 K, 5000 kPa | 724.5 | 738.6 | 747.1 | 756.3 | 760.5 | 774.1 | 791.7
298.15 K, 10000 kPa | 730.2 | 743.9 | 752.2 | 761.2 | 765.2 | 778.5 | 795.7
298.15 K, 15000 kPa | 735.6 | 748.8 | 757 | 765.8 | 769.7 | 782.8 | 799.6
298.15 K, 20000 kPa | 740.5 | 753.5 | 761.5 | 770.1 | 773.9 | 786.7 | 803.2
298.15 K, 25000 kPa | 745.2 | 757.9 | 765.7 | 774.2 | 777.9 | 790.5 | 806.6
298.15 K, 30000 kPa | 749.6 | 762.1 | 769.8 | 778.1 | 781.8 | 794.1 | 810
298.15 K, 35000 kPa | 753.7 | 766 | 773.6 | 781.7 | 785.4 | 797.5 | 813.1
298.15 K, 40000 kPa | 757.8 | 769.8 | 777.3 | 785.3 | 788.9 | 800.8 | 816.2
298.15 K, 45000 kPa | 761.6 | 773.4 | 780.8 | 788.7 | 792.2 | 804.1 | 819.2
298.15 K, 50000 kPa | 765.2 | 776.9 | 784.2 | 792 | 795.5 | 807.1 | 822.1
298.15 K, 55000 kPa | 768.8 | 780.3 | 787.5 | 795.2 | 798.6 | 810.1 | 824.9
298.15 K, 60000 kPa | 772.2 | 783.5 | 790.6 | 798.2 | 801.6 | 812.9 | 827.6
298.15 K, 65000 kPa | 775.4 | 786.6 | 793.7 | 801.2 | 804.5 | 815.7 | 830.2
298.15 K, 70000 kPa | 778.6 | 789.7 | 796.6 | 804.1 | 807.4 | 818.5 | 832.8
298.15 K, 80000 kPa | 784.6 | 795.5 | 802.3 | 809.6 | 812.8 | 823.7 | 837.7
298.15 K, 90000 kPa | 790.3 | 801 | 807.7 | 814.9 | 818 | 828.7 | 842.4
298.15 K, 100000 kPa | 795.7 | 806.1 | 812.7 | 819.8 | 822.9 | 833.3 | 846.9
298.15 K, 110000 kPa | 800.8 | 811.1 | 817.6 | 824.5 | 827.5 | 837.9 | 851.2
298.15 K, 120000 kPa | 805.6 | 815.8 | 822.1 | 829 | 832 | 842.1 | 855.3
298.15 K, 130000 kPa | 810.3 | 820.3 | 826.5 | 833.3 | 836.3 | 846.3 | 859.2
298.15 K, 140000 kPa | 814.6 | 824.6 | 830.9 | 837.5 | 840.4 | 850.3 | 863.1
313.15 K, 100 kPa | 702.4 | 717.2 | 726.3 | 736.2 | 740.5 | 755.1 | 773.8
313.15 K, 1000 kPa | 703.8 | 718.4 | 727.5 | 737.3 | 741.6 | 756.1 | 774.7
313.15 K, 5000 kPa | 709.4 | 723.5 | 732.4 | 741.9 | 746.1 | 760.2 | 778.4
313.15 K, 10000 kPa | 715.8 | 729.6 | 738.2 | 747.4 | 751.5 | 765.2 | 782.9
313.15 K, 15000 kPa | 721.7 | 735 | 743.4 | 752.4 | 756.4 | 769.8 | 787.1
313.15 K, 20000 kPa | 727.2 | 740.2 | 748.4 | 757.1 | 761 | 774.1 | 791.1
313.15 K, 25000 kPa | 732.1 | 744.8 | 752.8 | 761.4 | 765.2 | 778 | 794.6
313.15 K, 30000 kPa | 737.1 | 749.5 | 757.4 | 765.8 | 769.6 | 782.1 | 798.4
313.15 K, 35000 kPa | 741.6 | 753.8 | 761.5 | 769.8 | 773.5 | 785.8 | 801.8
313.15 K, 40000 kPa | 745.9 | 757.8 | 765.4 | 773.6 | 777.2 | 789.3 | 805.1
313.15 K, 45000 kPa | 750 | 761.7 | 769.2 | 777.2 | 780.8 | 792.8 | 808.3
313.15 K, 50000 kPa | 753.9 | 765.5 | 772.9 | 780.8 | 784.3 | 796.1 | 811.4
313.15 K, 55000 kPa | 757.7 | 769.1 | 776.4 | 784.2 | 787.7 | 799.3 | 814.4
313.15 K, 60000 kPa | 761.3 | 772.7 | 779.8 | 787.4 | 790.9 | 802.3 | 817.3
313.15 K, 65000 kPa | 764.8 | 776 | 783.1 | 790.7 | 794.1 | 805.4 | 820.1
313.15 K, 70000 kPa | 768.1 | 779.1 | 786.1 | 793.7 | 797 | 808.2 | 822.8
313.15 K, 80000 kPa | 774.4 | 785.2 | 792.1 | 799.4 | 802.7 | 813.7 | 827.9
313.15 K, 90000 kPa | 780.5 | 791 | 797.8 | 805 | 808.2 | 818.9 | 832.9
313.15 K, 100000 kPa | 786.1 | 796.5 | 803.1 | 810.1 | 813.4 | 823.9 | 837.6
313.15 K, 110000 kPa | 791.4 | 801.7 | 808.2 | 815.1 | 818.3 | 828.6 | 842.1
313.15 K, 120000 kPa | 796.5 | 806.5 | 813 | 819.8 | 822.9 | 833 | 846.4
313.15 K, 130000 kPa | 801.4 | 811.3 | 817.7 | 824.4 | 827.4 | 837.4 | 850.5
313.15 K, 140000 kPa | 806 | 815.8 | 822 | 828.7 | 831.7 | 841.6 | 854.5
333.15 K, 100 kPa | 680.5 | 695.4 | 704.8 | 715.1 | 719.6 | 734.7 | 754.2
333.15 K, 1000 kPa | 682.1 | 696.9 | 706.3 | 716.4 | 720.9 | 735.9 | 755.4
333.15 K, 5000 kPa | 688.9 | 703 | 712.1 | 721.9 | 726.3 | 740.8 | 759.7
333.15 K, 10000 kPa | 696.4 | 709.9 | 718.7 | 728.2 | 732.4 | 746.5 | 764.8
333.15 K, 15000 kPa | 703.2 | 716.4 | 724.8 | 734 | 738.1 | 751.8 | 769.6
333.15 K, 20000 kPa | 709.4 | 722.2 | 730.4 | 739.3 | 743.4 | 756.7 | 774.1
333.15 K, 25000 kPa | 715.1 | 727.6 | 735.7 | 744.4 | 748.3 | 761.3 | 778.2
333.15 K, 30000 kPa | 720.5 | 732.7 | 740.5 | 749.1 | 752.9 | 765.7 | 782.3
333.15 K, 35000 kPa | 725.6 | 737.5 | 745.2 | 753.6 | 757.3 | 769.8 | 786.2
333.15 K, 40000 kPa | 730.3 | 742 | 749.6 | 757.8 | 761.5 | 773.7 | 789.8
333.15 K, 45000 kPa | 734.8 | 746.3 | 753.7 | – | – | – | –
